Source: patent publication US4349545A, “Novel erythromycin a derivatives” (Roussel Uclaf, priority 1980, dated 1982)
Converted amounts (≈) assume the structure as drawn.

Legend:
[1] = tested on: Streptococcus faecalis 5432; assay: serial dilution liquid medium MIC, Streptococcus faecalis 5432; type: cell-based; conditions: Enterococcus faecalis, 24 hours at 37° C., read-out: minimum inhibiting concentration (MIC)
Method: (§1) The method was a serial dilution of liquid medium test wherein a series of tubes were prepared containing the same amount of sterile nutritive medium and increasing amounts of the test product was distributed in each tube. The tubes were then seeded with a bacterial strain and incubated for 24 hours in an oven at 37° C. The degree of inhibition was determined by transillumination to determine the minimum inhibiting concentration (MIC) express in μg/ml and the results are reported in the following Tables.

[2] = tested on: Staphylococcus aureus UC 1128; assay: serial dilution liquid medium MIC, Staphylococcus aureus UC 1128 pen-resistant; type: cell-based; conditions: UC1128; Staphylococcus aureus UC 1128 pen-resistant; 24 hours at 37° C.; read-out: minimum inhibiting concentration (MIC)
Method: as §1

[3] = tested on: Streptococcus pyogenes A 561; assay: serial dilution liquid medium MIC, Streptococcus pyogenes A 561; type: cell-based; conditions: A561, 24 hours at 37° C., read-out: minimum inhibiting concentration (MIC)
Method: as §1

[4] = tested on: Staphylococcus aureus No. 54,146; assay: In vivo activity in mice experimentally infected with Staphylococcus aureus No. 54,146; conditions: groups of 10 mice
Method: The test was effected with the compounds of the invention and erythromycin as a reference on groups of 10 mice weighing about 21 g experimentally infected with Staphylococcus aureus No. 54,146 by intraperitoneal administration of 0.5 ml of a 22 hour culture of the said organism in bouillon with a pH of 7 diluted to 1/6 with physiological water. The test compounds were orally administrated to the mice 1,5 and 24 hours after the infection and the mortality on the 8th day was determined.

[5] = tested on: Staphylococcus aureus 1061; assay: serial dilution liquid medium MIC, Staphylococcus aureus 1061 pen-sensibles; type: cell-based; conditions: 24 hours at 37° C., read-out: minimum inhibiting concentration (MIC)
Method: as §1

[6] = tested on: Streptococcus faecalis 99 F 74; assay: serial dilution liquid medium MIC, Streptococcus faecalis 99 F 74; type: cell-based; conditions: Enterococcus faecalis, 99F74, 24 hours at 37° C., read-out: minimum inhibiting concentration (MIC)
Method: as §1

[7] = tested on: Staphylococcus aureus exp. n° 54 146; assay: serial dilution liquid medium MIC, Staphylococcus aureus exp. n° 54 146; type: cell-based; conditions: Staphylococcus aureus exp. 54 146; 24 hours at 37° C.; read-out: minimum inhibiting concentration (MIC)
Method: as §1

[8] = tested on: Streptococcus faecalis 5435; assay: serial dilution liquid medium MIC, Streptococcus faecalis 5435; type: cell-based; conditions: Enterococcus faecalis, 24 hours at 37° C., read-out: minimum inhibiting concentration (MIC)
Method: as §1

[9] = dose 0,5mg oral, 1,5 and 24 hours after infection
[10] = dose 0,25mg oral, 1,5 and 24 hours after infection
[11] = dose 0,75mg oral, 1,5 and 24 hours after infection
[12] = dose 1mg oral, 1,5 and 24 hours after infection

Row | SMILES | MIC [1] [µg/mL] | MIC [2] [µg/mL] | MIC [3] [µg/mL] | No. of mice living on the 8th day [4, 9] [mice] | No. of mice living on the 8th day [4, 10] [mice] | No. of mice living on the 8th day [4, 11] [mice] | MIC [5] [µg/mL] | MIC [6] [µg/mL] | MIC [7] [µg/mL] | MIC [8] [µg/mL] | No. of mice living on the 8th day [4, 12] [mice]
1 | CC[C@H]1OC(=O)[C@H](C)[C@@H](O[C@H]2C[C@@](C)(OC)[C@@H](O)[C@H](C)O2)[C@H](C)[C@@H](O[C@@H]2O[C@H](C)C[C@H](N(C)C)[C@H]2O)[C@](C)(O)C[C@@H](C)C(=NOCC2OCCO2)[C@H](C)[C@@H](O)[C@]1(C)O [Example 30, 9-[0-{(1,3-dioxolan-2-yl)-methyl}-oxime] of erythromycin] | 0.4 (≈ 0.479 µM) | 0.6 (≈ 0.719 µM) | 0.05 (≈ 0.0599 µM) | 7 | 2 | 10 | 0.4 (≈ 0.479 µM) | 0.2 (≈ 0.24 µM) | 0.4 (≈ 0.479 µM) | 2 (≈ 2.4 µM) | 
2 | CC[C@H]1OC(=O)[C@H](C)[C@@H](O[C@H]2C[C@@](C)(OC)[C@@H](O)[C@H](C)O2)[C@H](C)[C@@H](O[C@@H]2O[C@H](C)C[C@H](N(C)C)[C@H]2O)[C@](C)(O)C[C@@H](C)C(=NOCOC)[C@H](C)[C@@H](O)[C@]1(C)O [Example 33, 9-[O-(methoxymethyl)-oxime] of erythromycin] | 0.1 (≈ 0.126 µM) | 0.4 (≈ 0.504 µM) | 0.02 (≈ 0.0252 µM) | 10 | 7 |  | 0.1 (≈ 0.126 µM) | 0.1 (≈ 0.126 µM) | 0.2 (≈ 0.252 µM) | 0.2 (≈ 0.252 µM) | 
3 | CC[C@H]1OC(=O)[C@H](C)[C@@H](O[C@H]2C[C@@](C)(OC)[C@@H](O)[C@H](C)O2)[C@H](C)[C@@H](O[C@@H]2O[C@H](C)C[C@H](N(C)C)[C@H]2O)[C@](C)(O)C[C@@H](C)C(=NOCC(OC)OC)[C@H](C)[C@@H](O)[C@]1(C)O [Example 29, 9-[0-(2,2-dimethoxyethyl)-oxime] of erythromycin] | 0.4 (≈ 0.478 µM) | 1 (≈ 1.19 µM) | 0.1 (≈ 0.119 µM) | 8 | 2 | 9 | 0.4 (≈ 0.478 µM) | 0.2 (≈ 0.239 µM) | 0.4 (≈ 0.478 µM) | 1 (≈ 1.19 µM) | 10
4 | CCOCON=C1[C@H](C)C[C@@](C)(O)[C@H](O[C@@H]2O[C@H](C)C[C@H](N(C)C)[C@H]2O)[C@@H](C)[C@H](O[C@H]2C[C@@](C)(OC)[C@@H](O)[C@H](C)O2)[C@@H](C)C(=O)O[C@H](CC)[C@@](C)(O)[C@H](O)[C@H]1C [Example 20, 9-[0-(ethoxymethyl)-oxime] of erythromycin] | 0.1 (≈ 0.124 µM) | 0.6 (≈ 0.743 µM) | 0.1 (≈ 0.124 µM) | 4 | 2 | 10 | 0.4 (≈ 0.496 µM) | 0.1 (≈ 0.124 µM) | 0.4 (≈ 0.496 µM) | 0.2 (≈ 0.248 µM) | 
5 | CC[C@H]1OC(=O)[C@H](C)[C@@H](O[C@H]2C[C@@](C)(OC)[C@@H](O)[C@H](C)O2)[C@H](C)[C@@H](O[C@@H]2O[C@H](C)C[C@H](N(C)C)[C@H]2O)[C@](C)(O)C[C@@H](C)C(=NOC(C)CN(CC)CC)[C@H](C)[C@@H](O)[C@]1(C)O (stereo partly drawn) [Example 46, 9-[O-(2-diethylamino-isopropyl)-oxime] of erythromycin] | 0.05 (≈ 0.058 µM) | 0.6 (≈ 0.696 µM) | ≤ 0.01 |  |  |  | 0.2 (≈ 0.232 µM) | 0.05 (≈ 0.058 µM) | 0.4 (≈ 0.464 µM) | 0.1 (≈ 0.116 µM) | 
6 | CC[C@H]1OC(=O)[C@H](C)[C@@H](O[C@H]2C[C@@](C)(OC)[C@@H](O)[C@H](C)O2)[C@H](C)[C@@H](O[C@@H]2O[C@H](C)C[C@H](N(C)C)[C@H]2O)[C@](C)(O)C[C@@H](C)C(=NOCC(=O)C(C)(C)C)[C@H](C)[C@@H](O)[C@]1(C)O [Example 15, 9-[0-(3,3-dimethyl-2-oxo-butyl)-oxime] of erythromycin] | 0.1 (≈ 0.118 µM) | 1 (≈ 1.18 µM) | 0.1 (≈ 0.118 µM) | 9 | 1 | 10 | 0.6 (≈ 0.708 µM) | 0.2 (≈ 0.236 µM) | 0.6 (≈ 0.708 µM) | 0.6 (≈ 0.708 µM) | 
7 | CC[C@H]1OC(=O)[C@H](C)[C@@H](O[C@H]2C[C@@](C)(OC)[C@@H](O)[C@H](C)O2)[C@H](C)[C@@H](O[C@@H]2O[C@H](C)C[C@H](N(C)C)[C@H]2O)[C@](C)(O)C[C@@H](C)C(=NOC(C)CN(C)C)[C@H](C)[C@@H](O)[C@]1(C)O (stereo partly drawn) [Example 36, 9-[O-(2-dimethylamino-1-methyl-ethyl)-oxime] of erythromycin] | 0.1 (≈ 0.12 µM) | 0.5 (≈ 0.599 µM) | ≤ 0.01 | 9 | 3 | 10 | 0.2 (≈ 0.24 µM) | 0.1 (≈ 0.12 µM) | 0.5 (≈ 0.599 µM) | 0.5 (≈ 0.599 µM) | 
8 | CC[C@H]1OC(=O)[C@H](C)[C@@H](O[C@H]2C[C@@](C)(OC)[C@@H](O)[C@H](C)O2)[C@H](C)[C@@H](O[C@@H]2O[C@H](C)C[C@H](N(C)C)[C@H]2O)[C@](C)(O)C[C@@H](C)C(=NOCOCCNC)[C@H](C)[C@@H](O)[C@]1(C)O [Example 25, 9-[0-{(2-methylamino-ethoxy}-methyl)-oxime] of erythromycin] | 0.05 (≈ 0.0598 µM) | 0.5 (≈ 0.598 µM) | ≤ 0.01 |  |  |  | 0.5 (≈ 0.598 µM) | 0.05 (≈ 0.0598 µM) | 0.5 (≈ 0.598 µM) | 0.2 (≈ 0.239 µM) | 
9 | CC[C@H]1OC(=O)[C@H](C)[C@@H](O[C@H]2C[C@@](C)(OC)[C@@H](O)[C@H](C)O2)[C@H](C)[C@@H](O[C@@H]2O[C@H](C)C[C@H](N(C)C)[C@H]2O)[C@](C)(O)C[C@@H](C)C(=NOCC(O)CN(C)C)[C@H](C)[C@@H](O)[C@]1(C)O (stereo partly drawn) [Example 48, 9-[0-(3-dimethylamino-2-hydroxy-propyl)-oxime] of erythromycin] | 0.4 (≈ 0.471 µM) | 0.6 (≈ 0.706 µM) | 0.05 (≈ 0.0588 µM) |  |  |  | 0.4 (≈ 0.471 µM) | 0.1 (≈ 0.118 µM) | 0.6 (≈ 0.706 µM) | 1 (≈ 1.18 µM) | 
10 | CC[C@H]1OC(=O)[C@H](C)[C@@H](O[C@H]2C[C@@](C)(OC)[C@@H](O)[C@H](C)O2)[C@H](C)[C@@H](O[C@@H]2O[C@H](C)C[C@H](N(C)C)[C@H]2O)[C@](C)(O)C[C@@H](C)C(=NOCCN2CCOCC2)[C@H](C)[C@@H](O)[C@]1(C)O [Example 35, 9-[O-(2-{morpholin-4-yl}-ethyl)oxime] of erythromycin] | 0.2 (≈ 0.232 µM) | 1 (≈ 1.16 µM) | 0.05 (≈ 0.058 µM) | 8 | 2 | 9 | 0.4 (≈ 0.464 µM) | 0.4 (≈ 0.464 µM) | 0.6 (≈ 0.696 µM) | 1 (≈ 1.16 µM) | 10
11 | CC[C@H]1OC(=O)[C@H](C)[C@@H](O[C@H]2C[C@@](C)(OC)[C@@H](O)[C@H](C)O2)[C@H](C)[C@@H](O[C@@H]2O[C@H](C)C[C@H](N(C)C)[C@H]2O)[C@](C)(O)C[C@@H](C)C(=NOCOCCN(CC)CC)[C@H](C)[C@@H](O)[C@]1(C)O [Example 23, 9-[0-{(2-diethylaminoethoxy)-methyl}-oxime] of erythromycin] | 0.1 (≈ 0.114 µM) | 1 (≈ 1.14 µM) | 0.02 (≈ 0.0228 µM) |  |  |  | 0.4 (≈ 0.456 µM) | 0.1 (≈ 0.114 µM) | 0.6 (≈ 0.683 µM) | 0.2 (≈ 0.228 µM) | 
12 | CC[C@H]1OC(=O)[C@H](C)[C@@H](O[C@H]2C[C@@](C)(OC)[C@@H](O)[C@H](C)O2)[C@H](C)[C@@H](O[C@@H]2O[C@H](C)C[C@H](N(C)C)[C@H]2O)[C@](C)(O)C[C@@H](C)C(=NOCC2CO2)[C@H](C)[C@@H](O)[C@]1(C)O (stereo partly drawn) [Example 47, 9-[0-(oxiramylmethyl)-oxime] of erythromycin] | 0.2 (≈ 0.248 µM) | 0.4 (≈ 0.497 µM) | 0.05 (≈ 0.0621 µM) |  |  |  | 0.2 (≈ 0.248 µM) | 0.2 (≈ 0.248 µM) | 0.4 (≈ 0.497 µM) | 0.2 (≈ 0.248 µM) | 
13 | CC[C@H]1OC(=O)[C@H](C)[C@@H](O[C@H]2C[C@@](C)(OC)[C@@H](O)[C@H](C)O2)[C@H](C)[C@@H](O[C@@H]2O[C@H](C)C[C@H](N(C)C)[C@H]2O)[C@](C)(O)C[C@@H](C)C(=NOCCC#N)[C@H](C)[C@@H](O)[C@]1(C)O [Example 14, 9-[0-(2-cyanoethyl)-oxime] of erythromycin] | 0.1 (≈ 0.125 µM) | 0.4 (≈ 0.499 µM) | 0.02 (≈ 0.0249 µM) |  |  |  | 0.2 (≈ 0.249 µM) | 0.05 (≈ 0.0623 µM) | 0.4 (≈ 0.499 µM) | 0.4 (≈ 0.499 µM) | 
14 | CC[C@H]1OC(=O)[C@H](C)[C@@H](O[C@H]2C[C@@](C)(OC)[C@@H](O)[C@H](C)O2)[C@H](C)[C@@H](O[C@@H]2O[C@H](C)C[C@H](N(C)C)[C@H]2O)[C@](C)(O)C[C@@H](C)C(=NOCCOCCO)[C@H](C)[C@@H](O)[C@]1(C)O [Example 17, 9-[0-(2-{2-hydroxyethoxy}-ethyl)-oxime] of erythromycin] | 0.1 (≈ 0.119 µM) | 0.6 (≈ 0.717 µM) | 0.05 (≈ 0.0597 µM) |  |  |  | 0.4 (≈ 0.478 µM) | 0.1 (≈ 0.119 µM) | 0.4 (≈ 0.478 µM) | 0.6 (≈ 0.717 µM) | 
